{"source": "patent US20190083462A1", "about": "“PREVENTION OF NSAID ENTEROPATHY WITH MICROBIOTA-DERIVED TRYPTOPHAN-METABOLITE” (THE TEXAS A&M UNIVERSITY SYSTEM, priority 2016, published 2019)", "key": {"C57BL/6J mice": {"test_system": "C57BL/6J mice", "test": "Fecal calprotectin ELISA", "type": "in vivo", "conditions": "feces, day 6 vs day 0; once daily gavage", "procedure": "(§1) Eight- to 10-week-old specific-pathogen-free C57BL/6J mice were purchased and allowed to acclimate for 2 weeks. Mice were fed standardized laboratory rodent diet and sterile water ad libitum. […] Mice were then rehoused on the basis of treatment group assignment, with 5 animals/group-cage. To induce NSAID enteropathy, mice in group 1 were gavaged once daily with indomethacin (5 mg/kg; for 7 days; Sigma Aldrich, St. Louis, Mo.) dissolved in dimethylysulfoxide (DMSO) (Sigma Aldrich, St. Louis, Mo.) and further diluted in phosphate buffered saline (PBS). […] Sigma Aldrich, St. Louis, Mo.) dissolved in sterile water warmed to 55° C. […] All mice were gavaged with equal volumes (200 μL) and equal concentrations of DMSO (0.001%). Feces were collected daily by placing individual animals in sterile plastic cups that were RNase- and DNase-free until they passed feces. The mice were immediately returned to their home cages and the feces immediately flash frozen at -80° C. All animals were euthanized via CO2 asphyxiation on day 8 (i.e., after 7 days of treatment). […] Life Technologies, Carlsbad, Calif.), homogenized, and prepared as a single cell suspension for flow cytometric analysis as previously described (Wang […]. Measuring bacterial load and immune responses in mice infected with Listeria monocytogenes. Journal of Visualized Experiments: JoVE 2011). […]"}, "[1]": {"test_system": "CD11b- and GR-1-positive cells (i.e., neutrophils)", "test": "Flow cytometry of spleen and mesenteric lymph nodes", "type": "in vivo, mice", "conditions": "after 7 days of treatment", "procedure": "as §1"}, "small intestinal mucosa": {"test_system": "small intestinal mucosa", "test": "RNA sequencing (RNA-Seq) of the distal small intestinal mucosa", "type": "in vivo, mice", "from_the_text": "Eight- to 10-week-old specific-pathogen-free C57BL/6J mice were purchased and allowed to acclimate for 2 weeks. Mice were fed standardized laboratory rodent diet and sterile water ad libitum. Mice were randomly divided into the following 4 groups (n=5 mice/group): 1) NSAID (indomethacin); 2) indole; 3) NSAID+indole; and, 4) untreated controls. Mice were then rehoused on the basis of treatment group assignment, with 5 animals/group-cage. To induce NSAID enteropathy, mice in group 1 were gavaged once daily with indomethacin (5 mg/kg; for 7 days; Sigma Aldrich, St. Louis, Mo.) dissolved in dimethylysulfoxide (DMSO) (Sigma Aldrich, St. Louis, Mo.) and further diluted in phosphate buffered saline (PBS). Mice in group 2 received indole by gavage (20 mg/kg; once daily for 7 days; Sigma Aldrich, St. Louis, Mo.) dissolved in sterile water warmed to 55° C. Mice in group 3 received indole co-administered with indomethacin by gavage at the dosages described above. All mice were gavaged with equal volumes (200 μL) and equal concentrations of DMSO (0.001%).\nFeces were collected daily by placing individual animals in sterile plastic cups that were RNase- and DNase-free until they passed feces. The mice were immediately returned to their home cages and the feces immediately flash frozen at −80° C. […]\nRNA was extracted from the mucosal scrapings using an RNeasy mini kit (QIAGEN, Redwood City, Calif.) following the manufacturer's instructions and including on-column DNase treatment. RNA quantity was determined using a Nanodrop spectrophotometer (Fisher Thermoscientific) and the quality was assessed using the Nano6000 chip on a Bioanalyzer 2100(Agilent Technologies). […] Differentially expressed genes were determined using EdgeR based on the matrix of gene counts (Robinson M D, McCarthy D J, Smyth G K. edgeR: a Bioconductor package for differential expression analysis of digital gene expression data. Bioinformatics (Oxford, England) 2010; 26:139-40). Gene lists were analyzed through use of QIAGEN's Ingenuity® Pathway Analysis (IPA, QIAGEN, Redwood City, Calif. http://www.qiagen.com/ingenuity). […]"}}, "data": [{"smiles": "COc1ccc2c(c1)c(CC(=O)O)c(C)n2C(=O)c1ccc(Cl)cc1", "note": "[NSAID, indomethacin]", "values": [{"measurement": "fecal calprotectin levels", "setting": "C57BL/6J mice", "value": "significantly different from day 0 calprotectin"}, {"measurement": "percentage of CD11b- and GR-1-positive cells (neutrophils) in the mesenteric lymph nodes (MLN)", "setting": "[1]", "value": "significant increase"}, {"measurement": "percentage of CD11b- and GR-1-positive cells (neutrophils) in the spleen", "setting": "[1]", "value": "significant increase"}, {"measurement": "NF-κB signaling pathway activation", "setting": "small intestinal mucosa; RNA-Seq pathway analysis of mucosal scrapings", "value": "activated"}, {"measurement": "transcription of pro-inflammatory cytokines (IL-1α, IL-1β, TNF, IL-6) and chemokines (CXCL1, CXCL3, CXCL2, CXCL5, CCL2, CCL7)", "setting": "small intestinal mucosa; small intestinal mucosal transcriptome after 7 days, vs control mice", "value": "significantly up-regulated"}]}]}
